Legend:
P. gingivalis = assay: Related studies: brain abeta42 and neuroinflammation; type: in vivo
P. gingivalis W83 = assay: Mouse periodontitis model, P. gingivalis DNA in brain tissue (qPCR); type: in vivo, BALB/C mice; conditions: between week 5 and 10
Experimental: At the beginning of the study, eight week old BALB/C female mice received antibiotic in drinking water (sulfamethoxazolum 0.87 mg/mL, trimethoprimum 0.17 mg/mL) for 10 days to reduce microbiome protection from experiment infection. Experimental periodontitis was induced by ligature placement followed by multiple exposures to P. gingivalis. During the ligature procedure mice were anesthetized with an intraperitoneal injection of ketamine (200 mg/kg) and xylazine (10 mg/kg), and eyes were lubricated with ointment (Puralube Vet; Pharmaderm, Melville, N.Y.). Next, a 5-0 silk ligature (Roboz Surgical Instrument Co.) was tied around the upper maxillary left and right second molar. Sutures were applied and tied gently to prevent damage to the periodontal tissue.
Mice (n=8-10/arm) were infected for 6 weeks every other day. For infection, […]. of bacteria solution were applied topically to the buccal surface of the maxillae. For preparation of the bacteria, P. gingivalis W83 (ATCC, Rockville, Md.) was streaked on Tryptic Soy Broth (TSB) agar plates (5% sheep blood, supplemented with 0.5 mg/mL L-cysteine, 5 μg/mL hemin, and 0.5 μg/mL vitamin K) and grown under anaerobic conditions at 37° C. for 5-7 days. Samples were then inoculated in TSB with hemin, vitamin K and L-cysteine (TSB-HKC) until mid-log phase (OD600=0.5-0.7). Bacteria were washed in PBS and prepared at final concentration of 1×10^10 cells/mL in PBS+2% methylcellulose (CMC).
Vehicle-treated animals received PBS only. At 5 weeks, a subgroup of animals (n=16) were euthanized to gather baseline measurements before the start of treatment. After 10 weeks, mice were euthanized and the brain, serum, and maxillary tissues were harvested and frozen in liquid nitrogen.
DNA was extracted from brain tissue using the DNeasyBLOOD & TISSUE KIT (Qiagen, Germany) according to manufacturer's protocol. […] The number of copies of the P. gingivalis genome was calculated by matching Cq values with a standard curve prepared from serial dilutions of cultured P. gingivalis W83 (WT). […]

Cathepsin K = Cathepsin K (Homo sapiens (Human), UniProt P43235); assay: Cathepsin K inhibition assay; type: biochemical; conditions: Table 4; read-out: IC50 (nM) CatK
Sequence of Cathepsin K (P43235 115-329, species assumed): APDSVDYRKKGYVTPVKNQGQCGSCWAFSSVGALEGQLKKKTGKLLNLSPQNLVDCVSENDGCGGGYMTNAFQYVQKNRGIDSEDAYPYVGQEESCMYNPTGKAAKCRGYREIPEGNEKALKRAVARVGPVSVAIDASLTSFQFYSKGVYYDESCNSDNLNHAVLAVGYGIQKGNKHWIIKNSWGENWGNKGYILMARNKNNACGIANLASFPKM
Experimental: (§1) The capacities of compounds of the present invention to inhibit the activity of cathepsins B, H, K, L, and S were measured in similar assays. Boc-Leu-Arg-Arg-AMC (20 μM) in sodium acetate buffer (50 mM, pH 5.5) containing DTT (1 mM) and EDTA (2 mM) was used for the Cathepsin B assay. L-Arg-AMC (20 μM) in sodium acetate buffer (50 mM, pH 5.5) containing DTT (1 mM) and EDTA (2 mM) was used for the Cathepsin H assay. Z-Phe-Arg-AMC (10 μM) in HEPES buffer (50 mM, pH 7.4) containing DTT (2.5 mM) and EDTA (1 mM) was used for the Cathepsin K assay. Z-Phe-Arg-AMC (20 μM) in sodium acetate buffer (50 mM, pH 5.5) containing DTT (1 mM) and EDTA (2 mM) was used for the Cathepsin L assay. Z-Leu-Arg-AMC (10 μM) in sodium acetate buffer (25 mM, pH 4.5) containing DTT (2.5 mM) and NaCl (50 mM) was used for the Cathepsin S assay. The capacities of the compounds to inhibit the activity of cathepsins F, V, and Z were also measured.
(§2) Further assays to measure the inhibitory activity of compounds of the present invention against Kgp and cathepsins B, H, K, L, and S were conducted as described in Example 66. The capacities of the compounds to inhibit the activity of cathepsins F, V, and Z were also measured.

cathepsin V = cathepsin V (Homo sapiens (Human), UniProt O60911); assay: Cathepsin V inhibition assay; type: biochemical; conditions: Table 4; read-out: IC50 (nM) CatV
Sequence of cathepsin V (O60911 114-334): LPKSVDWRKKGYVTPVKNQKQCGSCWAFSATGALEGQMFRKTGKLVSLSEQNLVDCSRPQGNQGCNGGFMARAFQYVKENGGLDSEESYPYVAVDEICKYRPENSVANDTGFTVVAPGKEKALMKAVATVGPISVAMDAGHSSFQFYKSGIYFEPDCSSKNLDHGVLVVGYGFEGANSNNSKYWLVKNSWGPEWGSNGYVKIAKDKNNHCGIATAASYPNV
Experimental: as §1, §2

cathepsin F = cathepsin F (Homo sapiens (Human), UniProt Q9UBX1); assay: Cathepsin F inhibition assay; type: biochemical; conditions: Table 4; read-out: IC50 (nM) CatF
Sequence of cathepsin F (Q9UBX1 271-484): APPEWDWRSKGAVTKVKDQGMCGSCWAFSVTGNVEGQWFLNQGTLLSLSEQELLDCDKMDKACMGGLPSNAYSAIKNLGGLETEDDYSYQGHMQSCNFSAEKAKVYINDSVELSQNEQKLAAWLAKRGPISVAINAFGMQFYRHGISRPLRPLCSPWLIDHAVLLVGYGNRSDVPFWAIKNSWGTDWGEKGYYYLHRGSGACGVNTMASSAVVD
Experimental: as §1, §2

For `NCCCC[C@H](NC(=O)C1CCCC1)C(=O)COc1c(F)ccc(F)c1F` [Compound 1, (S)—N-(7-amino-2-oxo-1-(2,3,6-trifluorophenoxy)heptan-3-yl)cyclopentanecarboxamide], the “induction of brain abeta42” value (P. gingivalis) was “reduce induction”, the neuroinflammation (P. gingivalis) was “reduce induction” and the “reduction in P. gingivalis DNA copy number in brain tissue” value (P. gingivalis W83; 3 mg/kg) was ~50%. The “reduction in P. gingivalis DNA copy number in brain tissue” value (P. gingivalis W83; 10 mg/kg) was ~50%, the “reduction in P. gingivalis DNA copy number in brain tissue” value (P. gingivalis W83; 30 mg/kg) was ~80% and the IC50 (Cathepsin K) was 117 nM. For the same compound, the IC50 (cathepsin V) was > 10000 nM and the IC50 (cathepsin F) was 6100 nM.

Reference: US10730826B2, “Ketone inhibitors of lysine gingipain” (CORTEXYME, INC., priority 2016, dated 2020)
